Experimental data published in patent publication US10011615B2, “Heterobicyclo-substituted [1,2,4]triazolo[1,5-c]quinazolin-5-amine compounds with A2A anatagonist properties” (Merck Sharp & Dohme Corp., priority 2012, dated 2018).

Biological target: T1, human A2a receptor (Homo sapiens, UniProt P29274)
T1 construct: purchased Perkin-Elmer RBHA2AM400UA; host or cells: HEK293 cell membranes
Assay: A2a receptor competition binding assay using Scintillation Proximity technology
Details: membranes from HEK293 cells expressing human A2a receptor; 0.5 nM tritiated radioligand; SPA beads; 1 h room temperature
In short: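 Membranes of HEK293 cells expressing human A2a, pretreated with adenosine deaminase, incubated 1 h at room temperature with 0.5 nM tritiated pyrazolotriazolopyrimidine antagonist (final) and compound (3000 to 0.15 nM) on WGA SPA beads in Ca/Mg-free PBS with 10 mM MgCl2. Ki from EC50 via Cheng-Prusoff.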

T1 sequence (P29274 whole entry): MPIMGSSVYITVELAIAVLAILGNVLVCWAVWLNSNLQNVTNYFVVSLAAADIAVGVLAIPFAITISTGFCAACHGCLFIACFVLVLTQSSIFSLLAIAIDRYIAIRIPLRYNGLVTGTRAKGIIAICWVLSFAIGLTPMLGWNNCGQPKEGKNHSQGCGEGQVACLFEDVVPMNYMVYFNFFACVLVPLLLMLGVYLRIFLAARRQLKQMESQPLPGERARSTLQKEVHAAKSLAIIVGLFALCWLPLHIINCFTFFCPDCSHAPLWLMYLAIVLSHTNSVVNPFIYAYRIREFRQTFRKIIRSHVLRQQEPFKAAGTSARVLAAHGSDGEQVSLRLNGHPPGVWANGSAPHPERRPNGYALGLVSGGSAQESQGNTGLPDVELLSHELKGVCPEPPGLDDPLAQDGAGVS

## COc1cccc2c1nc(N)n1nc(CN3CCCc4cccnc43)nc21 [Ex-161, 2-((3,4-dihydro-1,8-naphthyridin-1(2H)-yl)methyl)-7-methoxy-[1,2,4]triazolo[1,5-c]quinazolin-5-amine]
  EC50: 2.1 nM

## COc1cccc2c1nc(N)n1nc(CN3CCCCc4ccc(-c5ccccn5)nc43)nc21 [Ex-162, 7-methoxy-2-((2-(pyridin-2-yl)-7,8-dihydro-5H-pyrido[2,3-b]azepin-9(6H)-yl)methyl)-[1,2,4]triazolo[1,5-c]quinazolin-5-amine]
  EC50: 2.7 nM

## COc1cccc2c1nc(N)n1nc(CN3Cc4ccccc4C(C)(C)C3)nc21 [Ex-163, 2-((4,4-dimethyl-3,4-dihydroisoquinolin-2(1H)-yl)methyl)-7-methoxy-[1,2,4]triazolo[1,5-c]quinazolin-5-amine]
  EC50: 2.7 nM

## COc1cc(F)cc2c1nc(N)n1nc(CN3Cc4cccnc4C3)nc21 [Ex-164, 2-((5H-pyrrolo[3,4-b]pyridin-6(7H)-yl)methyl)-9-fluoro-7-methoxy-[1,2,4]triazolo[1,5-c]quinazolin-5-amine]
  EC50: 8.6 nM

## COc1cccc2c1nc(N)n1nc(CN3CCc4ccc(-c5cncnc5)cc4C3)nc21 [Ex-165, 7-methoxy-2-((7-(pyrimidin-5-yl)-3,4-dihydroisoquinolin-2(1H)-yl)methyl)-[1,2,4]triazolo[1,5-c]quinazolin-5-amine]
  EC50: 4.4 nM

## COc1cccc2c1nc(N)n1nc(CN3CCc4ccc(NC(=O)c5ccccn5)cc4C3)nc21 [Ex-166, N-(2-((5-amino-7-methoxy-[1,2,4]triazolo[1,5-c]quinazolin-2-yl)methyl)-1,2,3,4-tetrahydroisoquinolin-7-yl)picolinamide]
  EC50: 4.5 nM

## COc1cccc2c1nc(N)n1nc(CN3CCc4ccc(NC(C)=O)cc4C3)nc21 [Ex-167]
  EC50: 7.6 nM

## COc1cccc2c1nc(N)n1nc(CN3CCc4ccc(-c5ccc(F)c(F)c5)cc4C3)nc21 [Ex-168]
  EC50: 4.3 nM

## COc1cccc2c1nc(N)n1nc(CCN3CCc4ccc(-c5cncnc5)cc4C3)nc21 [Ex-172, 7-methoxy-2-(2-(7-(pyrimidin-5-yl)-3,4-dihydroisoquinolin-2(1H)-yl)ethyl)-[1,2,4]triazolo[1,5-c]quinazolin-5-amine]
  EC50: 6.1 nM

## COc1cccc2c1nc(N)n1nc(CN3CCc4ccc(CC(=O)Nc5cccnc5)cc4C3)nc21 [Ex-173, 2-(2-((5-amino-7-methoxy-[1,2,4]triazolo[1,5-c]quinazolin-2-yl)methyl)-1,2,3,4-tetrahydroisoquinolin-7-yl)-N-(pyridine-3-yt)acetamide]
  EC50: 9.1 nM

## COc1cccc2c1nc(N)n1nc(CN3Cc4ccc(-c5cncnc5)cc4C3)nc21 [Ex-175]
  EC50: 4.6 nM

## COc1cccc2c1nc(N)n1nc(CN3CCc4cccc(-c5cncnc5)c4C3)nc21 [Ex-177, 7-methoxy-2-((8-(pyrimidin-5-yl)-3,4-dihydroisoquinolin-2(1H)-yl)methyl)-[1,2,4]triazolo[l,5-c]quinazolin-5-amine]
  EC50: 17 nM

## COc1cccc2c1nc(N)n1nc(CN3CCc4ccc(-c5cnc(C(F)(F)F)nc5)cc4C3)nc21 [Ex-179, 7-methoxy-2-((7-(2-(trifluoromethyl)pydmidin-5-yl)-3,4-dihydroisoquinolin-2(1H)-yl)methyl)-[1,2,4]triazolo[1,5-c]quinazolin-5-amine]
  EC50: 6.1 nM

## COc1cccc2c1nc(N)n1nc(CN3CCc4ccc(-c5cnn(C)c5)cc4C3)nc21 [Ex-180]
  EC50: 9 nM

## COc1cccc2c1nc(N)n1nc(CN3CCc4ccc(-c5cnn(C)c5C(F)(F)F)cc4C3)nc21 [Ex-182, 7-methoxy-2-((7-(1-methyl-5-(trifluoromethyl)-1H-pyrazol-4-yl)-3,4-dihydroisoquinolin-2(1H)-yl)methyl)-[1,2,4]triazolo[1,5-c]quinazolin-5-amine]
  EC50: 2.8 nM

## COc1cccc2c1nc(N)n1nc(CN3CCc4ccc(-c5cn(C)nc5C(F)(F)F)cc4C3)nc21 [Ex-184, 7-methoxy-2-((7-(1-methyl-3-(trifluoromethyl)-1H-pyrazol-4-yl)-3,4-dihydroisoquinolin-2(1H)-yl)methyl)-[1,2,4]triazolo[1,5-c]quinazolin-5-amine]
  EC50: 2.9 nM

## COc1cccc2c1nc(N)n1nc(CN3CCc4ccc(-c5ccccc5C(F)(F)F)cc4C3)nc21 [Ex-185, 7-methoxy-2-((7-(2-(trifluoromethyl)phenyl)-3,4-dihydroisoquinolin-2(1H)-yl)methyl)-[1,2,4]triazolo[1,5-c]quinazolin-5-amine]
  EC50: 11.2 nM

## COc1cccc2c1nc(N)n1nc(CN3CCc4ccc(-c5cnc(N)nc5C(F)(F)F)cc4C3)nc21 [Ex-186, 2-((7-(2-amino-4-(trifluoromethyl)pyrimidin-5-yl)-3,4-dihydroisoquinolin-2(1H)-yl)methyl)-7-methoxy-[1,2,4]triazolo[1,5-c]-quinazolin-5-amine]
  EC50: 3.9 nM

## COc1cccc2c1nc(N)n1nc(CCN3CCc4ccc(-c5cnc(C(F)(F)F)nc5)cc4C3)nc21 [Ex-187, 7-methoxy-2-(2-(7-(2-(trifluoromethyl)pyrimidin-5-yl)-3,4-dihydroisoquinolin-2(1H)-yl)ethyl)-[1,2,4]triazolo[1,5-c]quinazolin-5-amine]
  EC50: 2.9 nM

## Nc1nc2c(Br)cccc2c2nc(CN3CCc4cccnc4C3)nn12 [Ex-194]
  EC50: 8.8 nM

## Nc1nc2c(Br)cccc2c2nc(CN3Cc4cccnc4C3)nn12 [Ex-195]
  EC50: 16.6 nM

## N#Cc1cccc2c1nc(N)n1nc(CN3CCc4cccnc4C3)nc21 [Ex-196, 5-amino-2-((5,6-dihydro-1,7-naphthyridin-7(8H)-yl)methyl)[1,2,4]triazolo[1,5-c]quinazoline-7-carbonitrile]
  EC50: 274 nM

## N#Cc1cccc2c1nc(N)n1nc(CN3Cc4cccnc4C3)nc21 [Ex-197]
  EC50: 612 nM

## COCc1cccc2c1nc(N)n1nc(CN3Cc4cccnc4C3)nc21 [Ex-198, 2-((5H-Pyrrolo[3,4-b]pyridin-6(7H)-yl)methyl)-7-(methoxymethyl)-[1,2,4]triazolo[1,5-c]quinazolin-5-amine]
  EC50: 207 nM

## COCc1cccc2c1nc(N)n1nc(CN3CCc4cccnc4C3)nc21 [Ex-199]
  EC50: 199 nM

## Cc1cccc2c1nc(N)n1nc(CN3Cc4cccnc4C3)nc21 [Ex-200, 2-((5H-pyrrolo[3,4-b]pyridine-6(7H)-yl)methyl)-7-methyl-[1,2,4]triazolo[1,5-c]quinazolin-5-amine]
  EC50: 35.5 nM

## Cc1cccc2c1nc(N)n1nc(CN3CCc4cccnc4C3)nc21 [Ex-201]
  EC50: 21.7 nM

## Nc1nc2c(OCCF)cccc2c2nc(CN3CCc4cccnc4C3)nn12 [Ex-202]
  EC50: 147 nM

## CCOc1cccc2c1nc(N)n1nc(CN3Cc4cccnc4C3)nc21 [Ex-203, 2-((5H-pyrrolo[3,4-b]pyridin-6(7H)-yl)methyl)-7-ethoxy-[1,2,4]triazolo[1,5-c]quinazolin-5-amine]
  EC50: 88.3 nM

## CCOc1cccc2c1nc(N)n1nc(CN3CCc4cccnc4C3)nc21 [Ex-204, 2-((5,6-dihydro-1,7-naphthyridin-7(8H)-yl)methyl)-7-ethoxy-[1,2,4]triazolo[1,5-c]quinazolin-5-amine]
  EC50: 40.7 nM

## Nc1nc2c(OCF)cccc2c2nc(CN3CCc4cccnc4C3)nn12 [Ex-205, 2-((5,6-dihydro-1,7-naphthyridin-7(8H)-yl)methyl)-7-(fluoromethoxy)-[1,2,4]triazolo[1,5-c]quinazolin-5-amine]
  EC50: 10.9 nM
